Experimental data: patent US20050115197A1, “Antimicrobial barrier coatings and methods of use” (priority 2003, published 2005)

Test system: Aspergillus niger (ATCC 6275) and Penicillium pinophilum (ATCC 9644) mixture (interior films); Aureobasidium pullulans (ATCC 9348) (exterior films)
Assay: dry-film mildew resistance test of sealer/barrier compositions on coated filter paper on malt agar
Assay type: cell-based
Conditions: level of fungicide in the sealer/barrier composition; up to 14 days incubation
Method: The above sealer/barrier compositions were tested to determine the performance of dry-films as protective sealers in preventing the development of mildew during testing on porous cellulosic substrates. Several test samples of the composition were prepared with levels of fungicide ranging from 250 ppm to 3000 ppm. In addition, a composition was prepared without fungicide for use as a control.
Individual samples of the sealer/barrier composition were weighed out. Fungicide was added to the samples of the sealer/barrier coating compositions in a ladder series of levels (e.g., 250, 500, 750 1000 ppm, etc.) and thoroughly mixed. The test porous cellulosic substrates consisting of Whatman No. 30 filter paper were first brush coated each with two (2) coats of test composition, and allowed to dry in a protected location. Duplicate two inch squares were then cut from the coated filter paper specimens and placed on the surface on malt agar petri plates.
Test inoculums consisting of aqueous spore suspensions at a concentrations of ˜10^5 spores were prepared in sterile water. Those films (compositions) which were intended for use in interior application were inoculated with a mixture of Aspergillus niger (ATCC 6275) and Penicillium pinophilum (ATCC 9644). Films intended for exterior application were inoculated with Aureobasidium pullulans (ATCC 9348). […]

## c1ccc2[nH]c(-c3cscn3)nc2c1 [biocide, 2-(4-thiazoyl)benzimidazole]
  biocide level capable of preventing mold development on the substrate: ≤ 250 ppm
